≈ marks a conversion by molar mass, not a printed value.
Key:
Staphylococcus aureus [1] = assay: Antibacterial activity against methicillin-resistant Staphylococcus aureus after 24 hrs by microbroth dilution method; format: functional
[2] = Antioxidant activity assessed as DPPH free radical scavenging activity; format: functional
Staphylococcus aureus [3] = assay: Antibacterial activity against Staphylococcus aureus by turbidity assay; format: functional
Bacillus cereus [4] = assay: Antibacterial activity against Bacillus cereus by turbidity assay; format: functional
Escherichia coli [5] = assay: Antibacterial activity against Escherichia coli by turbidity assay; format: functional
Proteus vulgaris = assay: Antibacterial activity against Proteus vulgaris by turbidity assay; format: functional
Escherichia coli [6] = assay: Antibacterial activity against Escherichia coli after 18 hrs by CLSI broth microdilution method; format: functional
Staphylococcus aureus [7] = assay: Antibacterial activity against Staphylococcus aureus after 18 hrs by CLSI broth microdilution method; format: functional
Staphylococcus aureus [8] = assay: Antibacterial activity against Staphylococcus aureus; format: functional
Enterococcus faecalis = assay: Antibacterial activity against Enterococcus faecalis; format: functional
[9] = Antioxidant activity assessed as DPPH free radical scavenging activity incubated for 30 mins in dark condition; format: functional
Bacillus subtilis [10] = assay: Antibacterial activity against Bacillus subtilis ATCC 11562 by colorimetric based broth dilution method; format: functional, organism-based
[11] = system: Pseudomonas amygdali pv. lachrymans; assay: Antibacterial activity against Pseudomonas syringae pv. lachrymans ATCC 11921 by colorimetric based broth dilution method; format: functional, organism-based
Bacillus mycoides = assay: Antibacterial activity against Bacillus mycoides FSB 1 after 18 to 24 hrs by microdilution method; format: functional
Bacillus subtilis [12] = assay: Antibacterial activity against Bacillus subtilis FSB 2 after 18 to 24 hrs by microdilution method; format: functional
Micrococcus luteus = assay: Antibacterial activity against Micrococcus lysodeikticus ATCC 4698 after 18 to 24 hrs by microdilution method; format: functional
Staphylococcus aureus [13] = assay: Antibacterial activity against Staphylococcus aureus ATCC 25923 after 18 to 24 hrs by microdilution method; format: functional
Staphylococcus aureus [14] = assay: Antibacterial activity against Staphylococcus aureus FSB 30 after 18 to 24 hrs by microdilution method; format: functional
Azotobacter chroococcum = assay: Antibacterial activity against Azotobacter chroococcum FSB 14 after 18 to 24 hrs by microdilution method; format: functional
Enterobacter cloacae = assay: Antibacterial activity against Enterobacter cloacae FSB 22 after 18 to 24 hrs by microdilution method; format: functional
[15] = system: Pectobacterium carotovorum; assay: Antibacterial activity against Erwinia carotovora FSB 31 after 18 to 24 hrs by microdilution method; format: functional
Escherichia coli [16] = assay: Antibacterial activity against Escherichia coli ATCC 25922 after 18 to 24 hrs by microdilution method; format: functional
Klebsiella pneumoniae = assay: Antibacterial activity against Klebsiella pneumoniae FSB 26 after 18 to 24 hrs by microdilution method; format: functional
Pseudomonas fluorescens = assay: Antibacterial activity against Pseudomonas fluorescens FSB 28 after 18 to 24 hrs by microdilution method; format: functional
Pseudomonas syringae = assay: Antibacterial activity against Pseudomonas glycinea FSB 40 after 18 to 24 hrs by microdilution method; format: functional, Pseudomonas savastanoi pv. glycinea
[17] = system: Pseudomonas savastanoi pv. phaseolicola; assay: Antibacterial activity against Pseudomonas phaseolicola FSB 29 after 18 to 24 hrs by microdilution method; format: functional
[18] = Antioxidant activity assessed as DPPH free radical scavenging activity after 30 to 60 mins by UV-vis spectrophotometric analysis; format: functional
Staphylococcus aureus [19] = assay: Antibacterial activity against Staphylococcus aureus ATCC 6538 by agar diffusion method; format: functional
Escherichia coli [20] = assay: Antibacterial activity against Escherichia coli ATCC 10536 by agar diffusion method; format: functional
[21] = Antioxidant activity assessed as BTH equivalent of DPPH-induced radical scavenging activity; format: functional
Staphylococcus aureus [22] = assay: Antibacterial activity against Staphylococcus aureus after 17 hrs by NCCLS broth microdilution method; format: functional
Bacillus cereus [23] = assay: Antibacterial activity against Bacillus cereus after 17 hrs by NCCLS broth microdilution method; format: functional
Bacillus subtilis [24] = assay: Antibacterial activity against Bacillus subtilis after 17 hrs by NCCLS broth microdilution method; format: functional
Listeria monocytogenes = assay: Antibacterial activity against Listeria monocytogenes after 17 hrs by NCCLS broth microdilution method; format: functional
Escherichia coli [25] = assay: Antibacterial activity against Escherichia coli after 17 hrs by NCCLS broth microdilution method; format: functional
Salmonella typhimurium = assay: Antibacterial activity against Salmonella typhimurium after 17 hrs by NCCLS broth microdilution method; format: functional, Salmonella enterica subsp. enterica serovar Typhimurium; details: Salmonella enterica
Vibrio cholerae = assay: Antibacterial activity against Vibrio cholerae after 17 hrs by NCCLS broth microdilution method; format: functional
Campylobacter jejuni = assay: Antibacterial activity against Campylobacter jejuni after 17 hrs by NCCLS broth microdilution method; format: functional
Campylobacter coli = assay: Antibacterial activity against Campylobacter coli after 17 hrs by NCCLS broth microdilution method; format: functional
Aliarcobacter butzleri = assay: Antibacterial activity against Arcobacter butzleri after 17 hrs by NCCLS broth microdilution method; format: functional
[26] = system: Aliarcobacter cryaerophilus; assay: Antibacterial activity against Arcobacter cryaerophilus after 17 hrs by NCCLS broth microdilution method; format: functional
[27] = Antioxidant activity assessed as trolox equivalent of AAPH-induced radical scavenging activity preincubated for 30 mins followed by […] challenge measured every 1.14 mins for 120 mins by ORAC-FL assay; format: functional
[28] = Antioxidant activity assessed as ABTS radical scavenging activity by measuring trolox equivalence of antioxidant capacity at 1 uM up to 24 hrs by spectrophotometric analysis; format: functional
[29] = Antioxidant activity assessed as reduction of Fe3+-TPTZ to Fe2+-TPTZ by measuring trolox equivalence of antioxidant capacity by FRAP assay; format: functional
Staphylococcus aureus [30] = assay: Antibiofilm activity against methicillin-resistant Staphylococcus aureus at 100 ug/ml after 18 hrs by crystal violet staining-based method relative to control; format: functional
Staphylococcus aureus [31] = assay: Antibiofilm activity against methicillin-resistant Staphylococcus aureus at 150 ug/ml after 18 hrs by crystal violet staining-based method relative to control; format: functional
Staphylococcus aureus [32] = assay: Bactericidal activity against Staphylococcus aureus ATCC 29213 incubated for 24 hrs by serial dilution method; format: functional
Staphylococcus aureus [33] = assay: Antibacterial activity against Staphylococcus aureus ATCC 29213 assessed as inhibition of bacterial growth at 25 g/L incubated for 24 hrs by serial dilution method relative to cntrol; format: functional; details: ATCC 29213, 24 h, read-out: GI

COc1cc(/C=C/c2cc(/C=C/c3ccc(OCC(=O)N[C@H](C)c4ccccc4)c(OC)c3)[nH]n2)ccc1OCC(=O)N[C@H](C)c1ccccc1
MIC (Staphylococcus aureus [1]): 10 to 20 µg/mL (≈ 14.6 to 29.1 µM)

COc1cc(/C=C/c2cc(/C=C/c3ccc(OCC(=O)Nc4ccccc4C)c(OC)c3)[nH]n2)ccc1OCC(=O)Nc1ccccc1C
MIC (Staphylococcus aureus [1]): 10 to 20 µg/mL (≈ 15.2 to 30.4 µM)

COc1c2cc(C)cc1n1cc(ccc3cn(c4cc(C)cc(c4OC)n4cc(ccc5cn2c2ccccc52)c2ccccc24)c2ccccc32)c2ccccc21
IC50 [2]: 28 µg/mL (≈ 37.2 µM) | MIC (Staphylococcus aureus [3]): 7.81 to 31.2 µg/mL (≈ 10.4 to 41.5 µM) | MIC (Bacillus cereus [4]): 7.81 to 31.2 µg/mL (≈ 10.4 to 41.5 µM) | MIC (Escherichia coli [5]): 7.81 to 31.2 µg/mL (≈ 10.4 to 41.5 µM) | MIC (Proteus vulgaris): 7.81 to 31.2 µg/mL (≈ 10.4 to 41.5 µM)

Cc1c(O)cc(CCCCCCCCCC[P+](c2ccccc2)(c2ccccc2)c2ccccc2)c(O)c1C
MIC (Escherichia coli [6]): 0.6 to 19 µg/mL | MIC (Staphylococcus aureus [7]): 0.6 µg/mL

COc1cc(/C=C/c2cc(/C=C/c3ccc(OCC(=O)NCc4ccccc4)c(OC)c3)[nH]n2)ccc1OCC(=O)NCc1ccccc1
MIC (Staphylococcus aureus [1]): 10 to 20 µg/mL (≈ 15.2 to 30.4 µM)

O=C(/C=C/c1ccc(O)c(O)c1)O[C@@H]1C[C@](O)(C(=O)O)C[C@@H](O)[C@H]1O [CHLOROGENIC ACID]
EC50 [2]: 13.8 µg/mL (≈ 38.9 µM) | MIC (Staphylococcus aureus [8]): 32 to 128 µg/mL (≈ 90.3 to 361 µM) | MIC (Enterococcus faecalis): 32 to 128 µg/mL (≈ 90.3 to 361 µM)

COc1cc(O)c2c(=O)oc3c(O)c(O)cc(C)c3c2c1
EC50 [9]: 68.3 µM | IC50 (Bacillus subtilis [10]): 29 µM | IC50 [11]: 7 µM

Cc1ccc(NC(C)c2c(O)c3ccccc3oc2=O)cc1 (stereo unspecified)
MIC (Bacillus mycoides): 3.9 to 7.8 µg/mL (≈ 13.2 to 26.4 µM) | MIC (Bacillus subtilis [12]): 3.9 to 7.8 µg/mL (≈ 13.2 to 26.4 µM) | MIC (Micrococcus luteus): 3.9 to 7.8 µg/mL (≈ 13.2 to 26.4 µM) | MIC (Staphylococcus aureus [13]): 3.9 to 7.8 µg/mL (≈ 13.2 to 26.4 µM) | MIC (Staphylococcus aureus [14]): 3.9 to 7.8 µg/mL (≈ 13.2 to 26.4 µM) | MIC (Azotobacter chroococcum): 3.9 to 7.8 µg/mL (≈ 13.2 to 26.4 µM) | MIC (Enterobacter cloacae): 3.9 to 7.8 µg/mL (≈ 13.2 to 26.4 µM) | MIC [15]: 3.9 to 7.8 µg/mL (≈ 13.2 to 26.4 µM) | MIC (Escherichia coli [16]): 3.9 to 7.8 µg/mL (≈ 13.2 to 26.4 µM) | MIC (Klebsiella pneumoniae): 3.9 to 7.8 µg/mL (≈ 13.2 to 26.4 µM) | MIC (Pseudomonas fluorescens): 3.9 to 7.8 µg/mL (≈ 13.2 to 26.4 µM) | MIC (Pseudomonas syringae): 3.9 to 7.8 µg/mL (≈ 13.2 to 26.4 µM) | MIC [17]: 3.9 to 7.8 µg/mL (≈ 13.2 to 26.4 µM) | IC50 [18]: 94 µM

COc1cc(/C=C/c2cc(/C=C/c3ccc(OCC(=O)Nc4cc(Cl)cc(Cl)c4)c(OC)c3)[nH]n2)ccc1OCC(=O)Nc1cc(Cl)cc(Cl)c1
MIC (Staphylococcus aureus [1]): 10 to 20 µg/mL (≈ 13 to 26 µM)

COc1cc(/C=C/c2cc(/C=C/c3ccc(OCC(=O)Nc4ccc(F)cc4)c(OC)c3)[nH]n2)ccc1OCC(=O)Nc1ccc(F)cc1
MIC (Staphylococcus aureus [1]): 10 to 20 µg/mL (≈ 15 to 30 µM)

COc1ccccc1NC(=O)COc1ccc(/C=C/c2cc(/C=C/c3ccc(OCC(=O)Nc4ccccc4OC)c(OC)c3)[nH]n2)cc1OC
MIC (Staphylococcus aureus [1]): 10 to 20 µg/mL (≈ 14.5 to 29 µM)

COc1cc(/C=C/c2cc(/C=C/c3ccc(OCC(=O)Nc4cccc(C(C)=O)c4)c(OC)c3)[nH]n2)ccc1OCC(=O)Nc1cccc(C(C)=O)c1
MIC (Staphylococcus aureus [1]): 10 to 20 µg/mL (≈ 14 to 28 µM)

COc1cc(C2CC(C(=NNc3ccc(C)cc3)C3=NC(=S)NC(c4ccc(O)c(OC)c4)C3)=NC(=S)N2)ccc1O (stereo unspecified)
IC50 [9]: 0.679 µg/mL (≈ 1.13 µM)

O=C(CCc1ccc(O)cc1)c1c(O)cc(O)cc1O [PHLORETIN]
MIC (Staphylococcus aureus [19]): 100 µg/mL (≈ 365 µM) | MIC (Escherichia coli [20]): 250 µg/mL (≈ 912 µM) | Activity [21]: 1.27 mg.equiv

Oc1ccc(/C=C/c2cc(O)cc(O)c2)cc1 [RESVERATROL]
MIC (Staphylococcus aureus [22]): 16.5 to 260 µg/mL (≈ 72.3 to 1140 µM) | MIC (Bacillus cereus [23]): 16.5 to 260 µg/mL (≈ 72.3 to 1140 µM) | MIC (Bacillus subtilis [24]): 16.5 to 260 µg/mL (≈ 72.3 to 1140 µM) | MIC (Listeria monocytogenes): 16.5 to 260 µg/mL (≈ 72.3 to 1140 µM) | MIC (Escherichia coli [25]): 0.625 to 521 µg/mL (≈ 2.74 to 2280 µM) | MIC (Salmonella typhimurium): 0.625 to 521 µg/mL (≈ 2.74 to 2280 µM) | MIC (Vibrio cholerae): 0.625 to 521 µg/mL (≈ 2.74 to 2280 µM) | MIC (Campylobacter jejuni): 0.625 to 521 µg/mL (≈ 2.74 to 2280 µM) | MIC (Campylobacter coli): 0.625 to 521 µg/mL (≈ 2.74 to 2280 µM) | MIC (Aliarcobacter butzleri): 0.625 to 521 µg/mL (≈ 2.74 to 2280 µM) | MIC [26]: 0.625 to 521 µg/mL (≈ 2.74 to 2280 µM) | Activity [27]: 3.67 mM | Activity [28]: 1.57 mM | Activity [29]: 0.47 mM | inhibition at 100 µg/mL (Staphylococcus aureus [30]): 39.9% | inhibition at 150 µg/mL (Staphylococcus aureus [31]): 23.4%

COc1cc(N)ccc1O
MBC99 (Staphylococcus aureus [32]): 10 mM (≈ 1390 µg/mL) | inhibition of growth at 25000 µg/mL (Staphylococcus aureus [33]): 93%
